Reference: patent publication US8664220B2, “Polycyclic compounds as lysophosphatidic acid receptor antagonists” (Amira Pharmaceuticals, Inc., priority 2009, dated 2014)

Molecular target: T1, human LPA1 (Homo sapiens, UniProt Q92633)
T1 construct: the full-length cDNA for human LPA1 was obtained by PCR of the reverse transcription reaction; expressed in transfected cells
Test: LPA1 calcium flux assay
Assay type: cell-based
Conditions: human LPA1 expressing CHO cells, stimulated with 10 nM LPA; read-out: HLPA1 Ca Flux IC50
Procedure, shortened: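 CHO cells stably expressing human LPA1, serum-starved overnight and loaded with Calcium 4 dye in HBSS/20 mM Hepes/0.3% fatty-acid-free HSA, 1 h at 37 °C. Compounds pre-incubated 30 min at room temperature, then 10 nM LPA added; intracellular Ca2+ flux measured and IC50 from titration curves.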

T1 sequence (Q92633 whole entry): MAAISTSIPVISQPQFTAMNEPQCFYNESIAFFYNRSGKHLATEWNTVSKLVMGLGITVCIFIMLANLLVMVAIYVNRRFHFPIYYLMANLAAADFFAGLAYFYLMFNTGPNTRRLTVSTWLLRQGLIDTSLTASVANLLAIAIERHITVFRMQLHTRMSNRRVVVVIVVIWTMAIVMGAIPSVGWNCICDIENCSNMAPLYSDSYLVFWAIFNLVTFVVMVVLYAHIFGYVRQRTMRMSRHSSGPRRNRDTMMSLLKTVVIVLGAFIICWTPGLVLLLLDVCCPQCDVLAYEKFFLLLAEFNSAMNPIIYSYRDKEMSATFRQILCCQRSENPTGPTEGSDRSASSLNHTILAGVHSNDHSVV

| SMILES | IC50 [nM] |
| --- | --- |
| Cc1noc(-c2ccc(-c3ccc(C4(C(=O)O)CC4)cc3)cc2)c1Nc1cccc(OCc2ccccc2)n1 [Compound 1-125, 1-{4′-[4-(6-Benzyloxy-pyridin-2-ylamino)-3-methyl-isoxazol-5-yl]-biphenyl-4-yl}-cyclopropanecarboxylic acid] | < 300 |
| Cc1noc(-c2ccc(-c3ccc(C4(C(=O)O)CC4)cc3)cc2)c1Nc1cccc(Sc2ccccc2)n1 [Compound 1-126, 1-{4′-[3-Methyl-4-(6-phenylsulfanyl-pyridin-2-ylamino)-isoxazol-5-yl]-biphenyl-4-yl}-cyclopropanecarboxylic acid] | < 300 |
| Cc1noc(-c2ccc(-c3ccc(C4(C(=O)O)CC4)cc3)cc2)c1Nc1cccc([S+]([O-])c2ccccc2)n1 (stereo not drawn) [Compound 1-127, 1-{4′-[4-(6-Benzenesulfinyl-pyridin-2-ylamino)-3-methyl-isoxazol-5-yl]-biphenyl-4-yl}-cyclopropanecarboxylic acid] | < 300 |
| Cc1noc(-c2ccc(-c3ccc(C4(C(=O)O)CC4)cc3)cc2)c1Nc1cccc(S(=O)(=O)c2ccccc2)n1 [Compound 1-128, 1-{4′-[4-(6-Benzenesulfonyl-pyridin-2-ylamino)-3-methyl-isoxazol-5-yl]-biphenyl-4-yl}-cyclopropanecarboxylic acid] | < 300 |
| Cc1noc(-c2ccc(-c3ccc(C4(C(=O)O)CC4)cc3)cc2)c1C(O)c1cncc(-c2ccccc2)c1 (stereo not drawn) [Compound 1-129, 1-(4′-{4-[Hydroxy-(5-phenyl-pyridin-3-yl)-methyl]-3-methyl-isoxazol-5-yl}-biphenyl-4-yl)-cyclopropanecarboxylic acid] | < 300 |
| Cc1noc(-c2ccc(-c3ccc(C4(C(=O)O)CC4)cc3)cc2)c1C(O)c1cncc(-c2cccc(C(F)(F)F)c2)c1 (stereo not drawn) [Compound 1-130, 1-[4′-(4-{Hydroxy-[5-(3-trifluoromethyl-phenyl)-pyridin-3-yl]-methyl}-3-methyl-isoxazol-5-yl)-biphenyl-4-yl]-cyclopropanecarboxylic acid] | < 300 |
| Cc1noc(-c2ccc(-c3ccc(C4(C(=O)O)CC4)cc3)cc2)c1Nc1cccc(C#Cc2ccccc2)n1 [Compound 1-131, 1-{4′-[3-Methyl-4-(6-phenylethynyl-pyridin-2-ylamino)-isoxazol-5-yl]-biphenyl-4-yl}-cyclopropanecarboxylic acid] | < 300 |
| Cc1noc(-c2ccc(-c3ccc(CCC(=O)O)cc3)cc2)c1Nc1cccc(-c2ccccc2)n1 [Compound 1-132, 3-{4′-[3-Methyl-4-(6-phenyl-pyridin-2-ylamino)-isoxazol-5-yl]-biphenyl-4-yl}-propionic acid] | < 300 |
| Cc1noc(-c2ccc(-c3ccc(C(C)(C)C(=O)O)cc3)cc2)c1Nc1cccc(-c2ccccc2)n1 [Compound 1-133, 2-Methyl-2-{4′-[3-methyl-4-(6-phenyl-pyridin-2-ylamino)-isoxazol-5-yl]-biphenyl-4-yl}-propionic acid] | < 300 |
| Cc1noc(-c2ccc(-c3ccc(C4(CC(=O)O)CC4)cc3)cc2)c1Nc1cccc(-c2ccccc2)n1 [Compound 1-134, (1-{4′-[3-Methyl-4-(6-phenyl-pyridin-2-ylamino)-isoxazol-5-yl]-biphenyl-4-yl}-cyclopropyl)-acetic acid] | < 300 |
| Cc1noc(-c2ccc(-c3ccc(C4(C(=O)O)CC4)cc3)cc2)c1Nc1cccc(C#CC2CCCC2)n1 [Compound 1-135, 1-{4′-[4-(6-Cyclopentylethynyl-pyridin-2-ylamino)-3-methyl-isoxazol-5-yl]-biphenyl-4-yl}-cyclopropanecarboxylic acid] | 300 to 1000 |
| Cc1noc(-c2ccc(-c3ccc(C4(C(=O)O)CC4)cc3)cc2)c1Nc1cccc(C(=O)N2CCCC2)n1 [Compound 1-136, 1-(4′-{3-Methyl-4-[6-(pyrrolidine-1-carbonyl)-pyridin-2-ylamino]-isoxazol-5-yl}-biphenyl-4-yl)-cyclopropanecarboxylic acid] | < 300 |
| Cc1noc(-c2ccc(-c3ccc(C4(C(=O)O)CC4)cc3)cc2)c1Nc1cccc(C(=O)NC2CC2)n1 [Compound 1-137, 1-{4′-[4-(6-Cyclopropylcarbamoyl-pyridin-2-ylamino)-3-methyl-isoxazol-5-yl]-biphenyl-4-yl}-cyclopropanecarboxylic acid] | < 300 |
| Cc1noc(-c2ccc(-c3ccc(C4(C(=O)O)CC4)cc3)cc2)c1Nc1cccc(OC2CCCCC2)n1 [Compound 1-138, 1-{4′-[4-(6-Cyclohexyloxy-pyridin-2-ylamino)-3-methyl-isoxazol-5-yl]-biphenyl-4-yl}-cyclopropanecarboxylic acid] | < 300 |
| Cc1noc(-c2ccc(-c3ccc(C4(C(=O)O)CC4)cc3)cc2)c1Nc1cccc(OC2CCC2)n1 [Compound 1-139, 1-{4′-[4-(6-Cyclobutoxy-pyridin-2-ylamino)-3-methyl-isoxazol-5-yl]-biphenyl-4-yl}-cyclopropanecarboxylic acid] | < 300 |
| Cc1noc(-c2ccc(-c3ccc(C4(C(=O)O)CC4)cc3)cc2)c1Nc1cccc(OC(C)C2CCCCC2)n1 (stereo not drawn) [Compound 1-140, 1-(4′-{4-[6-(1-Cyclohexyl-ethoxy)-pyridin-2-ylamino]-3-methyl-isoxazol-5-yl}-biphenyl-4-yl)-cyclopropanecarboxylic acid] | < 300 |
| Cc1noc(-c2ccc(-c3ccc(C4(C(=O)O)CC4)cc3)cc2)c1Nc1cccc(OCCc2ccccc2)n1 [Compound 1-141, 1-{4′-[3-Methyl-4-(6-phenethyloxy-pyridin-2-ylamino)-isoxazol-5-yl]-biphenyl-4-yl}-cyclopropanecarboxylic acid] | < 300 |
| Cc1noc(-c2ccc(-c3ccc(C(=O)O)cc3)cc2)c1Nc1nnc(-c2ccccc2)o1 [Compound 1-142, 4′-[3-Methyl-4-(5-phenyl-[1,3,4]oxadiazol-2-ylamino)-isoxazol-5-yl]-biphenyl-4-carboxylic acid] | 1000 to 50000 |
| Cc1noc(-c2ccc(-c3ccc(C4(C(=O)O)CC4)cc3)cc2)c1Nc1cccc(N2CCOC2=O)n1 [Compound 1-143, 1-(4′-{3-Methyl-4-[6-(2-oxo-oxazolidin-3-yl)-pyridin-2-ylamino]-isoxazol-5-yl}-biphenyl-4-yl)-cyclopropanecarboxylic acid] | < 300 |
| Cc1noc(-c2ccc(-c3ccc(C4(C(=O)O)CC4)cc3)cc2)c1Nc1cccc(-c2cccc(C(N)=O)c2)n1 [Compound 1-144, 1-(4′-{4-[6-(3-Carbamoyl-phenyl)-pyridin-2-ylamino]-3-methyl-isoxazol-5-yl}-biphenyl-4-yl)-cyclopropanecarboxylic acid] | < 300 |
| Cc1noc(-c2ccc(-c3ccc(C4(C(=O)O)CC4)cc3)cc2)c1Nc1cccc(-c2cccc(C#N)c2)n1 [Compound 1-145, 1-(4′-{4-[6-(3-Cyano-phenyl)-pyridin-2-ylamino]-3-methyl-isoxazol-5-yl}-biphenyl-4-yl)-cyclopropanecarboxylic acid] | < 300 |
| COc1ccc(F)cc1-c1cccc(Nc2c(C)noc2-c2ccc(-c3ccc(C4(C(=O)O)CC4)cc3)cc2)n1 [Compound 1-146, 1-(4′-{4-[6-(5-Fluoro-2-methoxy-phenyl)-pyridin-2-ylamino]-3-methyl-isoxazol-5-yl}-biphenyl-4-yl)-cyclopropanecarboxylic acid] | < 300 |
| Cc1noc(-c2ccc(-c3ccc(C4(C(=O)O)CC4)cc3)cc2)c1Nc1cccc(-c2cc(F)cc(Cl)c2)n1 [Compound 1-147, 1-(4′-{4-[6-(3-Chloro-5-fluoro-phenyl)-pyridin-2-ylamino]-3-methyl-isoxazol-5-yl}-biphenyl-4-yl)-cyclopropanecarboxylic acid] | < 300 |
| Cc1noc(-c2ccc(-c3ccc(C4(C(=O)O)CC4)cc3)cc2)c1Nc1cccc(-c2cc(F)ccc2F)n1 [Compound 1-148, 1-(4′-{4-[6-(2,5-Difluoro-phenyl)-pyridin-2-ylamino]-3-methyl-isoxazol-5-yl}-biphenyl-4-yl)-cyclopropanecarboxylic acid] | < 300 |
| Cc1noc(-c2ccc(-c3ccc(C4(C(=O)O)CC4)cc3)cc2)c1Nc1cccc(-c2nn[nH]n2)n1 [Compound 1-149, 1-(4′-{3-Methyl-4-[6-(2H-tetrazol-5-yl)-pyridin-2-ylamino]-isoxazol-5-yl}-biphenyl-4-yl)-cyclopropanecarboxylic acid] | 1000 to 50000 |
| Cc1noc(-c2ccc(-c3ccc(C4(C(=O)O)CC4)cc3)cc2)c1Nc1cccc(-c2c(Cl)cccc2Cl)n1 [Compound 1-150, 1-(4′-{4-[6-(2,6-Dichloro-phenyl)-pyridin-2-ylamino]-3-methyl-isoxazol-5-yl}-biphenyl-4-yl)-cyclopropanecarboxylic acid] | < 300 |
| Cc1noc(-c2ccc(-c3ccc(C4(C(=O)O)CC4)cc3)cc2)c1Nc1cccc(-c2cc(F)ccc2Cl)n1 [Compound 1-151, 1-(4′-{4-[6-(2-Chloro-5-fluoro-phenyl)-pyridin-2-ylamino]-3-methyl-isoxazol-5-yl}-biphenyl-4-yl)-cyclopropanecarboxylic acid] | < 300 |
| Cc1noc(-c2ccc(-c3ccc(C4(C(=O)O)CC4)cc3)cc2)c1Nc1cccc(-c2cccc(F)c2F)n1 [Compound 1-152, 1-(4′-{4-[6-(2,3-Difluoro-phenyl)-pyridin-2-ylamino]-3-methyl-isoxazol-5-yl}-biphenyl-4-yl)-cyclopropanecarboxylic acid] | < 300 |
| Cc1noc(-c2ccc(-c3ccc(C4(C(=O)O)CC4)cc3)cc2)c1Nc1cccc(-c2cccc(F)c2Cl)n1 [Compound 1-153, 1-(4′-{4-[6-(2-Chloro-3-fluoro-phenyl)-pyridin-2-ylamino]-3-methyl-isoxazol-5-yl}-biphenyl-4-yl)-cyclopropanecarboxylic acid] | < 300 |
| Cc1noc(-c2ccc(-c3ccc(C4(C(=O)O)CC4)cc3)cc2)c1Nc1cccc(OCC2CC2)n1 [Compound 1-154, 1-{4′-[4-(6-Cyclopropylmethoxy-pyridin-2-ylamino)-3-methyl-isoxazol-5-yl]-biphenyl-4-yl}-cyclopropanecarboxylic acid] | < 300 |
